In data set [1] the test system is CFA-induced pain model. Nature of the data set: Antiallodynic activity on Complete Freund's Adjuvant (CFA)-induced inflammatory pain model (von Frey). The data set is classed as in vivo, Sprague-Dawley rats. The following applies: ip, 0.5 h, read-out: CFA model: effect (%) compared to control; for response vs control in vivo at 25 mg/kg: 25 mg/kg administered. On the procedure:
Male, Sprague-Dawley rats (200-220 g, Nara Bio, Korea) were habituated for 1 week before surgery and allowed free access to food and water throughout the experimentation. Room temperature and humidity were maintained at 24±2° C. and 50±10%, respectively.
CFA-induced inflammatory pain was induced by the procedure of Nagakura et al. (2003) and Gregory P. et al. (2010) with minor modifications. CFA (sigma, USA) was injected into the left plantar with a 100 ul volume under gaseous anesthesia with isoflurane and NO2 with a 4:4 flow ratio. Sham controls were injected with 100 ul of saline and preparation of the vehicle controls were identical to the group treated with compound, except for administration of vehicles without compound in the vehicle control group.
Tactile sensitivity (mechanical allodynia) was evaluated using von Frey monofilaments before and after treatment, and the animals were included in the study only if the withdrawal threshold value was less than 4 g. One week after surgery, CFA-infused animals (n=4˜6), sham-operated animals (n=12), and vehicle-operated animals (n=17) were tested for tactile sensitivity with von Frey monofilaments, with 3 trials for each animal. All animals were placed in a stainless steel mesh chamber and habituated for 30 min in the test cage. The tactile sensitivity for the ipsilateral hind paw was measured using the up-and-down method (Dixon, 1980) with seven von Frey monofilaments (0.4, 1, 2, 4, 6, 8, and 15 g) in 3 trials. The tactile sensitivity test was followed by Dixon's method (Dixon, 1980). The 50% paw withdrawal threshold for each paw was calculated using the following formula: [Xth] log=[vFr] log+ky where [vFr] is the force of the last von Frey used, k=0.2249 which is the average interval (in log units) between the von Frey monofilaments, and y is a value that depends upon the pattern of the withdrawal responses (Dixon, 1980).
The antiallodynic effect of the compound of Example was evaluated at the doses of 10, 30 and 60 mg/kg (n=4˜6), and were intraperitoneally administered in a volume of 5 ul/g by bodyweight in a vehicle of 30% (v/v) PEG. […]
The relative values compared to the sham (% control) were calculated and are shown in Table 4, which show an antiallodynic effect of the compound of examples in the CFA-induced pain model in rats.

Data set [2] relates to SNL model. The data set is described as follows: Antiallodynic activity in the Chung model (SNL, Spinal Nerve Ligation; von Frey). The data set is classed as in vivo, Sprague-Dawley rats. On the procedure:
Male Sprague-Dawley rats (200-220 g, Orient Bio, Korea) were habituated for 1 week before the experiment and allowed free access to food and water throughout the experimentation. Room temperature and humidity were maintained at 24±2° C. and 50±10%, respectively. The neuropathic surgery (SNL, Spinal Nerve Ligation) model was done as described in Kim and Chung (1992). Briefly, an animal was put under gaseous anesthesia with isoflurane and NO2 with a 4:4 flow ratio. The left lumbar spinal nerves L5 and L6 were isolated and tightly ligated with 4-0 silk thread. The wound was treated with a gentamicin antibiotic solution (4 mg/kg, 4 ul/g by bodyweight), and the wound muscle was closed with Catgut® chrome 4/0 thread and the skin was closed with Dafilon 4/0 thread. Sham controls were prepared in the same manner with the spinal nerves were exposed, but no ligated L5 and L6 nerves. Preparation of the vehicle controls were identical to the group treated with compound, except for administration of vehicles without compound in the vehicle control group.
Tactile sensitivity (mechanical allodynia) was evaluated using von Frey monofilaments before and after treatment and animals the animals were included in the study only if the withdrawal threshold value was less than 4 g. One week after surgery, SNL-operated animals (n=4˜6), sham-operated animals (n=4˜10) and vehicle-operated animals (n=4˜13) were tested for tactile sensitivity with von Frey monofilaments with 3 trials in each animal. All animals were placed in a stainless steel mesh chamber and habituated for 30 min in the test cage. The tactile sensitivity for ipsilateral hind paw was measured using the up-and-down method (Dixon, 1980) with seven von Frey monofilaments (0.4, 1, 2, 4, 6, 8, and 15 g) in 3 trials. The tactile sensitivity test was followed by Dixon's method (Dixon, 1980). The 50% paw withdrawal threshold for each paw was calculated using the following formula: [Xth] log=[vFr] log+ky where [vFr] is the force of the last von Frey used, k=0.2249 which is the average interval (in log units) between the von Frey monofilaments, and y is a value that depends upon the pattern of withdrawal responses (Dixon, 1980).
All animals were fasted for 18 h before the administration of the compounds. The antiallodynic effect of the compounds were evaluated at the various doses (n=5˜6), orally administered in a volume of 5 ul/g by bodyweight in a vehicle of 30% (v/v) PEG 400 (Example 7) or 20% (v/v) Tween 80 (Examples 5 and 6) or saline. […]
The relative values compared to the sham group (% control) were calculated and are shown in Table 5, which show an antiallodynic effect of the test compounds in the SNL model in rats.

[3] abbreviates: rat, intraperitoneal, 50 mg/kg administered.
[4] abbreviates: rat, oral, 3.5 mg/kg administered, time not given, read-out: SNL model: effect (%) compared to control.

The source of these data is patent US10081615B2, “Sulfamate derivative compounds for use in treating or alleviating pain” (Bio-Pharm Solutions Co., Ltd., priority 2013, dated 2018).

Like-named read-outs stand apart in the source and are kept apart here.

The term melting point denotes the temperature, or range, at which the solid turns liquid. In the case of `CC1(C)Oc2ccccc2[C@@H](COS([NH-])(=O)=O)O1.[Na+]` (hydrate or solvate) [Example 59, Sodium (S)-(((2,2-dimethyl-4H-benzo[d][1,3]dioxin-4-yl)methoxy)sulfonyl)amide Trihydrate], the melting point was in the range of 51.2 to 52.2 °C. On to `CCC1(CC)Oc2ccccc2C(COS(N)(=O)=O)O1` (racemic) [Example 6, (2,2-diethyl-4H-benzo[d][1,3]dioxin-4-yl))methyl sulfamate], for which, in data set [1] (setting [3]), the response vs control in vivo at 50 mg/kg stood at 64.6%. In the case of `CCC1(CC)Oc2ccccc2C(CCOS(N)(=O)=O)O1` (racemic) [Example 14, 2-(2,2-diethyl-4H-benzo[d][1.3]dioxin-4-yl)ethyl sulfamate], the response vs control in vivo at 3.5 mg/kg in data set [2] (setting [4]) worked out at 37.9%.

For `NS(=O)(=O)OCCC1OC2(CCCCC2)Oc2ccccc21` (racemic) [Example 16, 2-(4H-spiro[benzo[d][1.3]dioxine-2,1′-cyclohexan]-4-yl)ethyl sulfamate], the response vs control in vivo at 50 mg/kg in data set [1] (setting [3]) is 38.9%. For `CC1(C)Oc2ccccc2CC(COS(N)(=O)=O)O1` (racemic) [Example 17, (2,2-dimethyl-4,5-dihydrobenzo[d][1,3]dioxepin-4-yl)methyl sulfamate], in data set [2] (rat, oral, 3.5 mg/kg administered, 0.5 h, read-out: SNL model: effect (%) compared to control), the response vs control in vivo at 3.5 mg/kg came out at 16.8%.

For the compound `CCC1(CC)Oc2ccccc2CC(COS(N)(=O)=O)O1` (racemic) [Example 18, (2,2-diethyl-4,5-dihydrobenzo[d][1,3]dioxepin-4-yl)methyl sulfamate], the response vs control in vivo at 50 mg/kg in data set [1] (setting [3]) came out at 91.7%.

For the compound `NS(=O)(=O)OCC1Cc2ccccc2OC2(CCCC2)O1` (racemic) [Example 19, (4,5-dihydrospiro[benzo[d][1,3]dioxepine-2,1′-cyclopentan]-4-yl)methyl sulfamate], the response vs control in vivo at 3.5 mg/kg in data set [2] (setting [4]) came out at 33.3%.

Consider `NS(=O)(=O)OCC1Cc2ccccc2OC2(CCCCC2)O1` (racemic) [Example 20, (4,5-dihydrospiro[benzo[d][1,3]dioxepine-2,1′-cyclohexan]-4-yl)methyl sulfamate], for which, in data set [1] (setting [3]), the response vs control in vivo at 50 mg/kg was 69%. Still for that read-out and setting: to `CC1(C)Oc2cc(Cl)ccc2C(COS(N)(=O)=O)O1` (racemic) [Example 45, (7-chloro-2,2-dimethyl-4H-benzo[d][1,3]dioxin-4-yl)methyl sulfamate] belongs 33.1%; to `CC1(C)Oc2ccc(Cl)cc2C(COS(N)(=O)=O)O1` (racemic) [Example 48, (6-chloro-2,2-dimethyl-4H-benzo[d][1,3]dioxin-4-yl)methyl sulfamate], 21.7%.

Regarding `CCC1(CC)Oc2ccc(Cl)cc2C(COS(N)(=O)=O)O1` (racemic) [Example 51, (6-chloro-2,2-diethyl-4H-benzo[d][1,3]dioxin-4-yl)methyl sulfamate], in data set [1] (setting [3]), the response vs control in vivo at 50 mg/kg was 23.3%. For `NS(=O)(=O)OCC1OC2(CCCCC2)Oc2ccc(Cl)cc21` (racemic) [Example 53, (6-chloro-4H-spiro[benzo[d][1,3]dioxine-2,1′-cyclohexan]-4-yl)methyl sulfamate], in data set [1] (rat, intraperitoneal), the response vs control in vivo at 25 mg/kg was determined as 57.3%. The same measure, in the same setting: to `CC1(C)Oc2ccc(F)cc2C(COS(N)(=O)=O)O1` (racemic) [Example 54, (6-fluoro-2,2-dimethyl-4H-benzo[d][1,3]dioxin-4-yl)methyl sulfamate] belongs 82.9%.

Turning to `COc1ccc2c(c1)C(COS(N)(=O)=O)OC(C)(C)O2` (racemic) [Example 57, (6-methoxy-2,2-dimethyl-4H-benzo[d][1,3]dioxin-4-yl)methyl sulfamate], the response vs control in vivo at 25 mg/kg in data set [1] (rat, intraperitoneal) came to 39.1%. For `NS(=O)(=O)OC[C@H]1OC2(CCCC2)Oc2ccccc21` [Example 8, ((S)-4H-spiro[benzo[d][1,d]dioxine-2,1′-cyclopentan]-4-yl)methyl sulfamate], the response vs control in vivo at 50 mg/kg in data set [1] (setting [3]) came to 74.8%. Turning to `NS(=O)(=O)OC[C@@H]1OC2(CCCCC2)Oc2ccccc21` [Example 10, ((R)-4H-spiro[benzo[d][1,3]dioxine-2,1′-cylcohexan]-4-yl)methyl sulfamate], the response vs control in vivo at 25 mg/kg in data set [1] (rat, intraperitoneal) amounted to 37.2%. In the case of `CC1(C)Oc2c(Cl)cccc2[C@@H](COS(N)(=O)=O)O1` [Example 26, ((S)-8-chloro-2,2-dimethyl-4H-benzo[d][1,3]dioxin-4-yl)methyl sulfamate], in data set [1] (setting [3]), the response vs control in vivo at 50 mg/kg came out at 34.2%. Take `CCC1(CC)Oc2c(Cl)cccc2[C@@H](COS(N)(=O)=O)O1` [Example 29, ((S)-8-chloro-2,2-diethyl-4H-benzo[d][1,3]dioxin-4-yl)methyl sulfamate]: the response vs control in vivo at 25 mg/kg in data set [1] (rat, intraperitoneal) was determined as 43.9%.

`NS(=O)(=O)OC[C@H]1OC2(CCCC2)Oc2c(Cl)cccc21` [Example 32, ((S)-8-chloro-4H-spiro[benzo[d][1,3]dioxine-2,1′-cyclopentan]-4-yl)methyl sulfamate]: the response vs control in vivo at 50 mg/kg in data set [1] (setting [3]) was found to be 51.9%. Turning to `NS(=O)(=O)OC[C@H]1OC2(CCCCC2)Oc2c(Cl)cccc21` [Example 35, ((S)-8-chloro-4H-spiro[benzo[d][1,3]dioxine-2,1′-cylcohexan]-4-yl)methyl sulfamate], in data set [1] (setting [3]), the response vs control in vivo at 50 mg/kg was determined as 15.5%. Same read-out and setting: to `CC1(C)Oc2ccc(Cl)cc2[C@H](COS(N)(=O)=O)O1` [Example 46, ((R)-6-chloro-2,2-dimethyl-4H-benzo[d][1,3]dioxin-4-yl)methyl sulfamate] belongs 36.4%; to `CC1(C)Oc2ccc(Cl)cc2[C@@H](COS(N)(=O)=O)O1` [Example 47, ((S)-6-chloro-2,2-dimethyl-4H-benzo[d][1,3]dioxin-4-yl)methyl sulfamate], 100%.

On to `CC1(C)Oc2ccc(Cl)cc2[C@H](COS(N)(=O)=O)O1` [Example 61, Sodium (R)-(((6-chloro-2,2-dimethyl-4H-benzo[d][1,3]dioxin-4-yl)methoxy)sulfonyl)amide], for which the response vs control in vivo at 3.5 mg/kg in data set [2] (Rattus norvegicus, po, read-out: SNL model: effect (%) compared to control, rat, oral, 3.5 mg/kg administered, time not given) was 20.9%. As to `CC1(C)Oc2ccccc2C(CCOS(N)(=O)=O)O1` (centres unmarked) [Example 68, Sodium ((2-(2,2-dimethyl-4H-benzo[d][1,3]dioxin-4-yl)ethoxy)sulfonyl)amide], in data set [2] (Rattus norvegicus, po, 0.5 h, read-out: SNL model: effect (%) compared to control, rat, oral, 3.5 mg/kg administered, 0.5 h), the response vs control in vivo at 3.5 mg/kg amounted to 25%. As for `CC1(C)Oc2ccccc2C(COS(N)(=O)=O)O1` (centres unmarked) [Example 72, Potassium (((2,2-dimethyl-4H-benzo[d][1,3]dioxin-4-yl)methoxy)sulfonyl)amide], the response vs control in vivo at 50 mg/kg in data set [1] (Rattus norvegicus) is 67.1%. On to `CC1(C)Oc2ccccc2[C@@H](COS([NH-])(=O)=O)O1.[Li+]` [Example 73, Lithium (S)-(((2,2-dimethyl-4H-benzo[d][1,3]dioxin-4-yl)methoxy)sulfonyl)amide], for which, in data set [2] (rat, oral, 3.5 mg/kg administered, 0.5 h), the “SNL model: effect (%) compared to control” value is “(13.5%, 0.5 h)”.
